Marks after values point to notes of the source that are not given here.
Key:
Male Wistar rats [1] = assay: Chronic anticonvulsant activity using the kainic acid seizure test in rat; format: in vivo; conditions: for Wet-shakes Presence: 120 min observation; for Wet-shakes Presence / Rearings Presence / Rearings with Forelimb Clonus Presence: out of 10 animals; for Forelimb Clonus No.: average number of all animals; for Rearings Latency / Rearings with Forelimb Clonus Latency / Wet-shakes Latency: average of all animals
Source text: Chronic Anticonvulsant Activity Using the Kainic Acid Seizure Test in Rat. Dimebolins, including the compounds described herein, are shown to be efficacious in the rat kainic acid anticonvulsant activity model. It is appreciated that this model, though general, may also most closely correspond to and/or be more predictive of temporal lobe epilepsy found in humans. However, it is to be understood that this model is a general surrogate for all types of epilepsy.
Male Wistar rats (such as Male Rj: Wistar (Han) rats, weighing 180-280 g at the day of testing, from Elevage Janvier, 53940 Le Genest-Saint-Isle, France) are placed in groups of 4-5 in macrolon cages (41×25×18 cm or 44×28×19 cm) on wood litter (Litalabo—SPPS, 95100 Argenteuil, France), with free access to food and water until tested, and maintained under artificial lighting (12 hours) between 7:00 and 19:00 in a controlled ambient temperature of about 21° C., and relative humidity between 30-80%. Animals are acclimatized to laboratory conditions for least 3 days. Animals surviving the experiments are sacrificed at the end of the experiments by exposure to a mixture of O2/CO2 (20%/80%) followed by CO2.
Dimebon, or an analog or derivative thereof, either alone or in combination with one or more other compounds as described herein, is evaluated at 3 doses (e.g. 1, 3, and 10 mg/kg), administered i.p. once daily for seven days, with a administration volume of 5 mL/kg. The last administration (7th) is injected 30 minutes prior to kainic acid administration, and compared with a vehicle control group. The test article (single compound or combination) is prepared in 0.2% HPMC in physiological saline as follows: The test article is tested for solubility by cold stirring of the highest intended dose for 10 minutes in physiological saline. If soluble, physiological saline serves as vehicle, and doses are prepared W/V (stock) and then V/V (serial dilutions). Preparations may be made freshly for each day of administration and precautions may be taken to preserve the homogeneity of suspensions (if applicable) during the period of administration.
Diazepam (4 mg/kg i.p.) is administered in 0.2% HPMC in physiological saline 30 minutes prior to KA, and is used as reference substance (positive control). Kainic acid (12 mg/kg i.p.) dissolved in physiological saline is administered 30 minutes following the 7th administration of test article, diazepam, or vehicle control. Additional details are described in Ben-Ari et al, Neuroscience, 6, 1361-1391, 1981 for detecting anticonvulsant activity related to a glutamatergic mechanism.
Animals are injected with kainic acid (12 mg/kg i.p.). The occurrences of the following symptoms are noted over a 120 minute period after kainic acid injection: wet-shakes, rearings, and rearings with forelimb clonus. […] In addition, the latencies to the first appearance of the symptoms are measured and the number of forelimb clonus are counted. The number of forelimb clonus episodes per time interval starting from the first occurrence of forelimb clonus will be considered regarding the severity scale. 10 animals are studied per group. The test is performed blind. Quantitative data is analyzed by comparing treated groups with vehicle control using unpaired Student's t tests. Quantal data is analyzed by comparing treated groups with vehicle control using Fisher's Exact Probability tests.

Male Wistar rats [2] = assay: Acute anticonvulsant activity using the kainic acid seizure test in rat; format: in vivo; conditions: single dose 100 mg/kg i.p. 60 minutes prior to kainic acid
Protocol: Male Wistar rats (such as Male Rj: […] Animals are acclimatized to laboratory conditions for least 3 days. […] Additional details are described in Ben-Ari et al, Neuroscience, 6, 1361-1391, 1981 for detecting anticonvulsant activity related to a glutamatergic mechanism. Animals are injected with kainic acid (12 mg/kg i.p.). The occurrences of the following symptoms are noted over a 120 minute period after kainic acid injection: wet-shakes, rearings, and rearings with forelimb clonus. […] In addition, the latencies to the first appearance of the symptoms are measured and the number of forelimb clonus are counted. The number of forelimb clonus episodes per time interval starting from the first occurrence of forelimb clonus will be considered regarding the severity scale. 10 animals are studied per group. The test is performed blind. Quantitative data is analyzed by comparing treated groups with vehicle control using unpaired Student's t tests. Quantal data is analyzed by comparing treated groups with vehicle control using Fisher's Exact Probability tests. Acute Anticonvulsant Activity Using the Kainic Acid Seizure Test in Rat. Dimebon, or an analog or derivative thereof, including the compounds described herein, is shown to be efficacious in the rat kainic acid anticonvulsant activity model. […] The 100 mg/kg formulation is prepared in 0.2% HPMC in physiological saline.

NMDA receptor = conditions: Grigoriev et al. Chim. Pharm. Journal, 1988; cited from earlier work
[3] = at the doses in which it produces its anti-NMDA effect; cited from earlier work
[4] = reference substance 4 mg/kg i.p. 30 minutes prior to kainic acid
[5] = reference substance 4 mg/kg i.p. 30 minutes prior to kainic acid 12 mg/kg i.p.
[6] = 1 mg/kg i.p. once daily 7 days, last 30 min before kainic acid
[7] = 1 mg/kg i.p. once daily 7 days, last 30 min before kainic acid 12 mg/kg i.p.
[8] = 3 mg/kg i.p. once daily 7 days, last 30 min before kainic acid
[9] = 3 mg/kg i.p. once daily 7 days, last 30 min before kainic acid 12 mg/kg i.p.
[10] = 10 mg/kg i.p. once daily 7 days, last 30 min before kainic acid
[11] = 10 mg/kg i.p. once daily 7 days, last 30 min before kainic acid 12 mg/kg i.p.

With `CN1C(=O)CN=C(c2ccccc2)c2cc(Cl)ccc21` [Diazepam] the “Forelimb Clonus No., % change from vehicle” value (“Forelimb Clonus No., % change” for short) (Male Wistar rats [1]; [4]) was −79%, the “Rearings Latency, % change from vehicle” value (Male Wistar rats [1]; [4]) was “+8%” and the “Rearings Presence, % change from vehicle” value (Male Wistar rats [1]; [4]) was 0%. The “Rearings with Forelimb Clonus Latency, % change from vehicle” value (Male Wistar rats [1]; [4]) was “+36%”, the “Rearings with Forelimb Clonus Presence, % change from vehicle” value (Male Wistar rats [1]; [4]) was −60% and the “Wet-shakes Latency, % change from vehicle” value (“Wet-shakes Latency, % change” below) (Male Wistar rats [1]; [4]) was “+53%”. The “Wet-shakes Presence, % change from vehicle” value (from here on “Wet-shakes Presence, % change”) (Male Wistar rats [1]; [4]) was −10%, the “Wet-shakes Presence” value (Male Wistar rats [1]; [5]) was 9 ^NS and the “Forelimb Clonus No.” value (Male Wistar rats [1]; [5]) was 0.6 **. The “Rearings Latency” value (Male Wistar rats [1]; [5]) was 4282 ^NS seconds, the “Rearings with Forelimb Clonus Latency” value (Male Wistar rats [1]; [5]) was 6841 *** seconds and the “Wet-shakes Latency” value (Male Wistar rats [1]; [5]) was 3753 * seconds. The “Rearings Presence” value (Male Wistar rats [1]; [5]) was 9 ^NS and the “Rearings with Forelimb Clonus Presence” value (Male Wistar rats [1]; [5]) was 4 *^.

For `Cc1ccc2c(c1)c1c(n2CCc2ccc(C)nc2)CCN(C)C1` [Dimebon, 2,8-dimethyl-5-[2-(6-methyl-3-pyridyl)ethyl]-2,3,4,5-tetrahydro-1H-pyrido[4,3-b]indole], the “Forelimb Clonus No., % change” value (Male Wistar rats [1]; [6]) was −32%, the “Rearings Latency, % change from vehicle” value (Male Wistar rats [1]; [6]) was “+24%” and the “Rearings Presence, % change from vehicle” value (Male Wistar rats [1]; [6]) was −33%. For the same compound, the “Rearings with Forelimb Clonus Latency, % change from vehicle” value (Male Wistar rats [1]; [6]) was “+19%”, the “Rearings with Forelimb Clonus Presence, % change from vehicle” value (Male Wistar rats [1]; [6]) was −30% and the “Wet-shakes Latency, % change” value (Male Wistar rats [1]; [6]) was “+47%^(h)”. The “Wet-shakes Presence, % change” value (Male Wistar rats [1]; [6]) was −20%^(g), the “Wet-shakes Presence” value (Male Wistar rats [1]; [7]) was 8 ^NS and the “Forelimb Clonus No.” value (Male Wistar rats [1]; [7]) was 1.9 ^NS. For the same compound, the “Rearings Latency” value (Male Wistar rats [1]; [7]) was 4896 ^NS seconds, the “Rearings with Forelimb Clonus Latency” value (Male Wistar rats [1]; [7]) was 6009 * seconds and the “Wet-shakes Latency” value (Male Wistar rats [1]; [7]) was 3615 ^NS seconds. The “Rearings Presence” value (Male Wistar rats [1]; [7]) was 6 ^NS, the “Rearings with Forelimb Clonus Presence” value (Male Wistar rats [1]; [7]) was 7 ^NS and the “Forelimb Clonus No., % change” value (Male Wistar rats [1]; [8]) was −11%. The “Rearings Latency, % change from vehicle” value (Male Wistar rats [1]; [8]) was “+4%”, the “Rearings Presence, % change from vehicle” value (Male Wistar rats [1]; [8]) was 0% and the “Rearings with Forelimb Clonus Latency, % change from vehicle” value (Male Wistar rats [1]; [8]) was “+7%”. For the same compound, the “Rearings with Forelimb Clonus Presence, % change from vehicle” value (Male Wistar rats [1]; [8]) was −10%, the “Wet-shakes Latency, % change” value (Male Wistar rats [1]; [8]) was “+9%” and the “Wet-shakes Presence, % change” value (Male Wistar rats [1]; [8]) was 0%. For the same compound, the “Wet-shakes Presence” value (Male Wistar rats [1]; [9]) was 10 ^NS, the “Forelimb Clonus No.” value (Male Wistar rats [1]; [9]) was 2.5 ^NS and the “Rearings Latency” value (Male Wistar rats [1]; [9]) was 4134 ^NS seconds. The “Rearings with Forelimb Clonus Latency” value (Male Wistar rats [1]; [9]) was 5366 ^NS seconds, the “Wet-shakes Latency” value (Male Wistar rats [1]; [9]) was 2666 ^NS seconds and the “Rearings Presence” value (Male Wistar rats [1]; [9]) was 9 ^NS. For the same compound, the “Rearings with Forelimb Clonus Presence” value (Male Wistar rats [1]; [9]) was 9 ^NS, the “Forelimb Clonus No., % change” value (Male Wistar rats [1]; [10]) was −18% and the “Rearings Latency, % change from vehicle” value (Male Wistar rats [1]; [10]) was “+14%”. For the same compound, the “Rearings Presence, % change from vehicle” value (Male Wistar rats [1]; [10]) was −11%, the “Rearings with Forelimb Clonus Latency, % change from vehicle” value (Male Wistar rats [1]; [10]) was “+7%” and the “Rearings with Forelimb Clonus Presence, % change from vehicle” value (Male Wistar rats [1]; [10]) was −10%. For the same compound, the “Wet-shakes Latency, % change” value (Male Wistar rats [1]; [10]) was “+17%”, the “Wet-shakes Presence, % change” value (Male Wistar rats [1]; [10]) was 0% and the “Wet-shakes Presence” value (Male Wistar rats [1]; [11]) was 10 ^NS. The “Forelimb Clonus No.” value (Male Wistar rats [1]; [11]) was 2.3 ^NS, the “Rearings Latency” value (Male Wistar rats [1]; [11]) was 4526 ^NS seconds and the “Rearings with Forelimb Clonus Latency” value (Male Wistar rats [1]; [11]) was 5410 ^NS seconds. For the same compound, the “Wet-shakes Latency” value (Male Wistar rats [1]; [11]) was 2865 ^NS seconds, the “Rearings Presence” value (Male Wistar rats [1]; [11]) was 8 ^NS and the “Rearings with Forelimb Clonus Presence” value (Male Wistar rats [1]; [11]) was 9 ^NS. For the same compound, the “Forelimb Clonus No., % change” value (Male Wistar rats [2]) was −54%, the “Rearings Latency, % change from vehicle” value (Male Wistar rats [2]) was “+57%” and the “Rearings Presence, % change from vehicle” value (Male Wistar rats [2]) was −78%. The “Rearings with Forelimb Clonus Latency, % change from vehicle” value (Male Wistar rats [2]) was −10%, the “Rearings with Forelimb Clonus Presence, % change from vehicle” value (Male Wistar rats [2]) was −40% and the “Wet-shakes Latency, % change” value (Male Wistar rats [2]) was “+79%^(f)”. For the same compound, the “Wet-shakes Presence, % change” value (Male Wistar rats [2]) was −50%^(e), the “Forelimb Clonus No.” value (Male Wistar rats [2]; average number of all animals) was 1.3 ^NS and the “Rearings Latency” value (Male Wistar rats [2]; average of all animals) was 6197 * seconds. The “Rearings with Forelimb Clonus Latency” value (Male Wistar rats [2]; average of all animals) was 4546 ^NS seconds, the “Wet-shakes Latency” value (Male Wistar rats [2]; average of all animals) was 4394 ^NS seconds and the “Rearings Presence” value (Male Wistar rats [2]; out of 10 animals) was 2 *. The “Rearings with Forelimb Clonus Presence” value (Male Wistar rats [2]; out of 10 animals) was 6 ^NS and the “Wet-shakes Presence” value (Male Wistar rats [2]; out of 10 animals) was 5 ^NS.

In the case of `NC(CCCP(=O)(O)O)C(=O)O` (stereo not drawn) [AP5, 2-amino-5-phosphonovaleric acid], the “ED50 (anti-NMDA effect)” value (NMDA receptor) is given as 190 mg/kg and the neurotoxic effects [3] is given as “disturbance of coordination of movement and a sedative effect”.

— patent US11389435B2, “Compositions and methods for treating epilepsy” (BIOVISTA, INC., priority 2008, dated 2022)
